Reference: PubChem BioAssay AID1963972 (Molecular Pharmacology Branch, DTP, NCI, 2024)

Tested on: 945468-187-T-J2-PDC spheroids viability
Test: Anticancer human tumor 945468-187-T-J2-PDC patient-derived rectal carcinoma cell line growth inhibition [PI3K]
Details: spheroids with HUVEC and MSC; for IC50: curve of first compound; for viability, T/C: stronger effect = lower value; active = viability on the fitted dose curve at most 10% of control; inactive = the rest
Procedure, shortened: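 Multi-cell spheroids combine tumor cells with HUVEC and human MSCs, treated with targeted agents alone or with inavolisib, alpelisib, duvelisib or copanlisib. Concentrations fall in half-log steps from at or near clinical Cmax, or from 10 microM where Cmax is unknown; viability read-out.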

[1] = second compound 0.0316 µM, first compound 0.0316 µM
[2] = second compound 0.0316 µM, first compound 0.1 µM
[3] = second compound 0.0316 µM, first compound 0.316 µM
[4] = second compound 0.0316 µM, first compound 1 µM
[5] = second compound 0.0316 µM, first compound 3.16 µM
[6] = second compound 0.0316 µM, first compound 10 µM
[7] = second compound 0.1 µM, first compound 0.0316 µM
[8] = second compound 0.1 µM, first compound 0.1 µM
[9] = second compound 0.1 µM, first compound 0.316 µM
[10] = second compound 0.1 µM, first compound 1 µM
[11] = second compound 0.1 µM, first compound 3.16 µM
[12] = second compound 0.1 µM, first compound 10 µM
[13] = second compound 0.316 µM, first compound 0.0316 µM
[14] = second compound 0.316 µM, first compound 0.1 µM
[15] = second compound 0.316 µM, first compound 0.316 µM
[16] = second compound 0.316 µM, first compound 1 µM
[17] = second compound 0.316 µM, first compound 3.16 µM
[18] = second compound 0.316 µM, first compound 10 µM
[19] = second compound 1 µM, first compound 0.0316 µM
[20] = second compound 1 µM, first compound 0.1 µM
[21] = second compound 1 µM, first compound 0.316 µM
[22] = second compound 1 µM, first compound 1 µM
[23] = second compound 1 µM, first compound 3.16 µM
[24] = second compound 1 µM, first compound 10 µM
[25] = second compound 3.16 µM, first compound 0.0316 µM
[26] = second compound 3.16 µM, first compound 0.1 µM
[27] = second compound 3.16 µM, first compound 0.316 µM
[28] = second compound 3.16 µM, first compound 1 µM
[29] = second compound 3.16 µM, first compound 3.16 µM
[30] = second compound 3.16 µM, first compound 10 µM
[31] = second compound 10 µM, first compound 0.0316 µM
[32] = second compound 10 µM, first compound 0.1 µM
[33] = second compound 10 µM, first compound 0.316 µM
[34] = second compound 10 µM, first compound 1 µM
[35] = second compound 10 µM, first compound 3.16 µM
[36] = second compound 10 µM, first compound 10 µM
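Note: spheroids exposed to compounds for seven days before reading.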

CC1(C)CCC(CN2CCN(c3ccc(C(=O)NS(=O)(=O)c4ccc(NCC5CCOCC5)c([N+](=O)[O-])c4)c(Oc4cnc5[nH]ccc5c4)c3)CC2)=C(c2ccc(Cl)cc2)C1 + Cc1nc(NC(=O)N2CCCC2C(N)=O)sc1-c1ccnc(C(C)(C)C(F)(F)F)c1
> 10 µM: IC50 (second compound 0.0316 µM) | IC50 (second compound 0.1 µM) | IC50 (second compound 0.316 µM) | IC50 (second compound 1 µM) | IC50 (second compound 3.16 µM) | IC50 (second compound 10 µM)
inactive: viability, T/C [1] 101% | viability, T/C [2] 99.6% | viability, T/C [3] 121% | viability, T/C [4] 103% | viability, T/C [5] 98.7% | viability, T/C [6] 61.4% | viability, T/C [7] 118% | viability, T/C [8] 97.5% | viability, T/C [9] 116% | viability, T/C [10] 99.5% | viability, T/C [11] 110% | viability, T/C [12] 66.2% | viability, T/C [13] 113% | viability, T/C [14] 83.7% | viability, T/C [15] 108% | viability, T/C [16] 91.7% | viability, T/C [17] 80.2% | viability, T/C [18] 66.6% | viability, T/C [19] 102% | viability, T/C [20] 102% | viability, T/C [21] 82.3% | viability, T/C [22] 102% | viability, T/C [23] 100% | viability, T/C [24] 71.5% | viability, T/C [25] 81.4% | viability, T/C [26] 91% | viability, T/C [27] 72.6% | viability, T/C [28] 81.2% | viability, T/C [29] 93.8% | viability, T/C [30] 59% | viability, T/C [31] 83.3% | viability, T/C [32] 76.8% | viability, T/C [33] 69.8% | viability, T/C [34] 71.5% | viability, T/C [35] 75.5% | viability, T/C [36] 63.7%

C[C@@H](NC(=O)c1ncnc(N)c1Cl)c1ncc(C(=O)Nc2cc(C(F)(F)F)c(Cl)cn2)s1 + Cc1nc(NC(=O)N2CCCC2C(N)=O)sc1-c1ccnc(C(C)(C)C(F)(F)F)c1
> 10 µM: IC50 (second compound 0.0316 µM) | IC50 (second compound 0.1 µM) | IC50 (second compound 0.316 µM) | IC50 (second compound 1 µM) | IC50 (second compound 3.16 µM) | IC50 (second compound 10 µM)
inactive: viability, T/C [1] 94.3% | viability, T/C [2] 92.5% | viability, T/C [3] 77.2% | viability, T/C [4] 91.5% | viability, T/C [5] 96.2% | viability, T/C [6] 69.2% | viability, T/C [7] 100% | viability, T/C [8] 80.3% | viability, T/C [9] 95.8% | viability, T/C [10] 77.4% | viability, T/C [11] 105% | viability, T/C [12] 93.7% | viability, T/C [13] 99.8% | viability, T/C [14] 82.9% | viability, T/C [15] 123% | viability, T/C [16] 93.4% | viability, T/C [17] 87% | viability, T/C [18] 85% | viability, T/C [19] 91.4% | viability, T/C [20] 102% | viability, T/C [21] 99% | viability, T/C [22] 102% | viability, T/C [23] 81.1% | viability, T/C [24] 86.1% | viability, T/C [25] 90.8% | viability, T/C [26] 91.5% | viability, T/C [27] 92.4% | viability, T/C [28] 89% | viability, T/C [29] 89.5% | viability, T/C [30] 83% | viability, T/C [31] 76.3% | viability, T/C [32] 70.1% | viability, T/C [33] 85.7% | viability, T/C [34] 68.7% | viability, T/C [35] 72.2% | viability, T/C [36] 80.2%
